Data published in ChEMBL document CHEMBL3232739, “Discovery of a potent and dissociated non-steroidal glucocorticoid receptor agonist containing an alkyl carbinol pharmacophore” (Bioorg Med Chem Lett, 2014).
In brackets after ≈: the same amount, converted by molar mass.

Columns and labels:
Mus musculus [1] = test: Toxicity in B10.RIII mouse assessed as body fate level in serum at 30 mg/kg, po qd for 5 weeks relative to control; type: organism-based; set-up: dose 30 mg/kg, route oral; details: in vivo, 840 h
Glucocorticoid receptor = molecular target: T1, Glucocorticoid receptor (Homo sapiens, UniProt P04150)
T1 sequence (P04150 whole entry): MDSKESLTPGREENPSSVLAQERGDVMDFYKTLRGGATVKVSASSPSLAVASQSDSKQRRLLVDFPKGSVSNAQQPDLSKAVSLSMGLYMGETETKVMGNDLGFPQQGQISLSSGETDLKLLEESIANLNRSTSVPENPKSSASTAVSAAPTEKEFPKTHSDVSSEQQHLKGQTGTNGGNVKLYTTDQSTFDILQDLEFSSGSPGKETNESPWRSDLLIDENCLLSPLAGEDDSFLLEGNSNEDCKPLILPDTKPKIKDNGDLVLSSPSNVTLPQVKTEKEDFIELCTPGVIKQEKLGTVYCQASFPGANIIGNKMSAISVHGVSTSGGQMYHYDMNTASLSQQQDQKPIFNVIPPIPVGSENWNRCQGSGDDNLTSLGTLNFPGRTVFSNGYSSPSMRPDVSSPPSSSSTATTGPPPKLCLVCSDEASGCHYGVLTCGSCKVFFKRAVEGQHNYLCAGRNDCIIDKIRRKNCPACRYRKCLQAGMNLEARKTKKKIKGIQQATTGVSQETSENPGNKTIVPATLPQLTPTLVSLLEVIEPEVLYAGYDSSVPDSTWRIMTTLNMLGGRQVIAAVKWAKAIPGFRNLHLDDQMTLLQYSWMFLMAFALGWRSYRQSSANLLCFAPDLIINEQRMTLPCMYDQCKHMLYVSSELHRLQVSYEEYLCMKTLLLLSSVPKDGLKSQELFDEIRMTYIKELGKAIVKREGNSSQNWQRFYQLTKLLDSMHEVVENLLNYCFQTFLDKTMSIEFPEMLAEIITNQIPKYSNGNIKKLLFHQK

[2] = Permeability across apical to basolateral side in human Caco2 cells; type: ADME, cell-based; details: Caco-2, read-out: permeability
[3] = Equilibrium solubility of the compound at pH 2.2; type: physicochemical; details: buffer
[4] = Volume of distribution at steady state in Sprague-Dawley rat at 2 mg/kg, iv; type: ADME, organism-based; set-up: dose 2 mg/kg, route intravenous; details: in vivo, read-out: Vdss
[5] = Cmax in Sprague-Dawley rat at 30 mg/kg, po; type: ADME, organism-based; set-up: dose 30 mg/kg, route oral; details: in vivo
Mus musculus [6] = test: Antiinflammatory activity in po dosed mouse assessed as inhibition of LPS-induced TNFalpha production; type: functional
Homo sapiens = species: Homo sapiens; test: Selectivity ratio of IC50 for mineralocorticoid receptor (unknown origin) to IC50 for glucocorticoid receptor (unknown origin)
Mus musculus [7] = test: Toxicity in B10.RIII mouse assessed as triglyceride level in serum at 30 mg/kg, po qd for 5 weeks relative to control; type: organism-based; set-up: dose 30 mg/kg, route oral; details: in vivo, 840 h
[8] = Oral bioavailability in Sprague-Dawley rat at 30 mg/kg; type: ADME, organism-based; details: in vivo
Progesterone receptor = molecular target: T2, Progesterone receptor (Homo sapiens, UniProt P06401); test: Displacement of TAMRA-labeled mifepristone from progesterone receptor (unknown origin) by fluorescence polarization assay
T2 sequence (P06401 whole entry): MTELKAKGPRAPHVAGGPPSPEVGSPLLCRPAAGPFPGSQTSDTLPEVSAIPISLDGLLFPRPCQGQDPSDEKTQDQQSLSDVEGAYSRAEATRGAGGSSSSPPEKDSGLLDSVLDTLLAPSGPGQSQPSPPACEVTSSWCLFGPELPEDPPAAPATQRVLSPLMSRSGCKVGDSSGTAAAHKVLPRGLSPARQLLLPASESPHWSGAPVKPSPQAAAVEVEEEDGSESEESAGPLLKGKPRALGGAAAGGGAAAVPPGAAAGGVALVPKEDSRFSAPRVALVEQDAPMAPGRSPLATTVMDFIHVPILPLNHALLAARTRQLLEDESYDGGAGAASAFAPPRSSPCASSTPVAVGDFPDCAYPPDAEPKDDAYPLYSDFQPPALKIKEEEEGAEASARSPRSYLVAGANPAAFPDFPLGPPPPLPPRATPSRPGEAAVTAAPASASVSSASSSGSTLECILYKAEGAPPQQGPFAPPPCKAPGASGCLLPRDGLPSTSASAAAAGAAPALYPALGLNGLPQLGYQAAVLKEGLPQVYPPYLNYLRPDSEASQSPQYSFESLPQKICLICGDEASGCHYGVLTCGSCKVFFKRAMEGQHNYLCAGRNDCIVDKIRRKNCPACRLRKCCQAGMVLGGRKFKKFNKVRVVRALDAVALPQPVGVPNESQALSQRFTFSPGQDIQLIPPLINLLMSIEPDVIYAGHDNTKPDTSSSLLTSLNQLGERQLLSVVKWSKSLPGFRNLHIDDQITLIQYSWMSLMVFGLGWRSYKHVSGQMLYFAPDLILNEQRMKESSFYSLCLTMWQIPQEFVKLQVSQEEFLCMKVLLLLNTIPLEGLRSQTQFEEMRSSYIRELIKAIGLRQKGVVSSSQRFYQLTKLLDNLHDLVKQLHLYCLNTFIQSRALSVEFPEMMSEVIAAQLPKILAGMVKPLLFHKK

Mus musculus [9] = test: Antiarthritic activity in B10.RIII mouse collagen/complete Freund's adjuvant-induced arthritis model assessed as reduction of disease score at 30 mg/kg, po qd for 5 weeks relative to control; type: functional; set-up: scale not given: the % may be the effect or the level left

For `Cc1ccc(F)cc1C(C)(C)C[C@@](O)(Cc1cc2cnccc2[nH]1)C(C)(C)C`, the Activity (Mus musculus [1]) was -7%, the IC50 (Glucocorticoid receptor) was 0.002 µM and the Papp A→B [2] was 13.4 ×10⁻⁶ cm/s. The solubility thermodynamic [3] was 840 µg/mL (≈ 2200 µM), the Vd [4] was 4 L/kg and the Cmax [5] was 708 ng/mL. It also gave an ED50 (Mus musculus [6]) of under 1 mg/kg, a Ratio IC50 (Homo sapiens) of over 100 and an Activity (Mus musculus [7]) of 29%. The bioavailability [8] was 64%, the IC50 (Progesterone receptor) was 0.29 µM and the Activity (Mus musculus [9]) was -51%.
